Assay results as given in PubChem BioAssay AID2060507 (Molecular Pharmacology Branch, DTP, NCI, 2025).
“And” between values parts separate entries of the source, which are not always exact repeats. Equal values may be shown once. One block for each compound: values may come before it.

Test system: 519858-162-T-J1-PDC complex spheroid viability
Assay: Anticancer human tumor 519858-162-T-J1-PDC patient-derived colon adenocarcinoma cell line growth inhibition [GQUAD]
Details: for viability, T/C: stronger effect = lower value
Excerpt: DNA G-quadruplex Stabilizer Agents in Combinations in Complex Spheroids
A high-throughput screen of multi-cell type tumor spheroids was designed to identify active combinations of DNA G-quadruplex stabilizer agents and targeted small molecules. Complex spheroids include a stromal component modeled by human endothelial cells (HUVEC) and fibroblasts modeled by human mesenchymal stem cells (MSCs). The concentration ranges selected for each drug and investigational agent were based upon clinically achievable concentrations if the clinical Cmax of the agent was known.
Compounds. The drugs and investigational agents: pidnarulex (CX-5461; NSC782164), APTO-253 (NSC789042), BRACO-19 (NSC847499), peposertib (NSC802822), ceralasertib (NSC780249), elimusertib (NSC800525), camonsertib (NSC841442), AZD-1390 (NSC803789), olaparib (NSC753686), talazoparib (NSC767125), ART-558 (NSC835418), sotorasib (NSC818433), MRTX-1133 (NSC836407), SN-38 (NSC673596), topotecan (NSC609699), etoposide (NSC141540), doxorubicin (NSC123127), gemcitabine (NSC613327), 5-fluorouracil (NSC19893), paclitaxel (NSC125973), vemurafenib (NSC761431), panobinostat (NSC761190), R-306465 (JNJ-16241199; NSC773264), adavosertib (NSC754352), TP-3654 (NSC805149), carboplatin (NSC241240), KSQ-4279 (NSC840948), and staurosporine (NSC755774) were obtained from the National Cancer Institute (NCI) Developmental Therapeutics Program Chemical Repository (34). The FDA-approved anticancer drug set is available from the NCI Developmental Therapeutics Program. […] The stock solutions were prepared in dimethyl sulfoxide (DMSO, Sigma-Aldrich, St. Louis, MO, cat. D2650) at 800-fold the tested concentration and stored at -70 degrees C prior to their use. All drugs and investigational agents were tested over a range starting from a high concentration at or near the clinical Cmax and decreasing in half-log increments. If the clinical Cmax for an agent had not been determined, the highest concentration tested was 10 microM.
2.3 Cell Culture. All cells were maintained in an incubator at 37 degrees C and 5% CO2 with 95% humidity. The PDC lines were cultured according to standard operating procedures established by the NCI PDMR. All PDCs were thawed and cultured in Matrigel-coated flasks prepared with a working solution of 1X Ham's F-12 nutrient mix, without supplementation (Invitrogen, cat. 11765054), 100 U/mL penicillin-streptomycin (Invitrogen, cat. 15140122), and 2.5% Matrigel (Corning Inc., cat. 354248) for the first three passages. The 857933-349-R-J2-PDC line was cultured in 6C/Colon 1B media, which includes advanced DMEM/F-12 (Thermo Fisher Scientific, cat. 12634028), 10 mM HEPES (Thermo Fisher Scientific, cat. 15630080), 1X GlutaMAX supplement (Thermo Fisher Scientific, cat. 35050061), 0.1 mg/mL primocin (InvivoGen, cat. ant-pm-2), 10% defined fetal bovine serum, heat inactivated (HyClone Laboratories Inc., cat. SH30070.03HI), 50% L-WRN conditioned media (ATCC, cat. CRL-3276), 1.25 mM N-Acetyl-L-cysteine (Sigma-Aldrich, cat. A9165), 10 mM nicotinamide (Sigma-Aldrich, cat. N0636), 1X B-27 supplement (Thermo Fisher Scientific, cat. 17504044), 1X N-2 supplement (Thermo Fisher Scientific, cat. 17502048), 10 microM Y-27632 dihydrochloride (Tocris Bioscience, cat. 1254), and 50 ng/mL human EGF recombinant protein (Thermo Fisher Scientific, cat. PHG0311). The 485176-168-R4-J1-PDC line was cultured in Panc media, which includes all 6C/Colon 1B media components plus 100 ng/mL human FGF-10 (Thermo Fisher Scientific, cat. 100-26), 500 nM SB-431542 (Selleckchem, cat. S1067), and gastrin (Tocris, cat. 3006).
[…]
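Also: spheroids exposed to compounds for 7 days.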
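For viability, T/C in this document: 100% = DMSO vehicle control viability.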

IC50 (curve of compound): > 10 µM
SMILES: CC(C)n1c(=O)n(C)c2cnc3cc(F)c(-c4ccc(OCCCN5CCCCC5)nc4)cc3c21
viability, T/C (compound 0.0316 µM): 123% and 93.8% | viability, T/C (compound 0.1 µM): 107% and 102% | viability, T/C (compound 0.316 µM): 86.9% and 69.8% | viability, T/C (compound 1 µM): 108% and 91.8% | viability, T/C (compound 3.16 µM): 73.7% and 81.7% | viability, T/C (compound 10 µM): 120% and 93.2%

IC50 (curve of compound): > 10 µM
SMILES: C=CCn1c(=O)c2cnc(Nc3ccc(N4CCN(C)CC4)cc3)nc2n1-c1cccc(C(C)(C)O)n1
viability, T/C (compound 0.0316 µM): 83% and 81.4% | viability, T/C (compound 0.1 µM): 107% and 106% | viability, T/C (compound 0.316 µM): 126% and 105% | viability, T/C (compound 1 µM): 104% and 95.3% | viability, T/C (compound 3.16 µM): 83.3% and 94.8% | viability, T/C (compound 10 µM): 92.4% and 92.1%

IC50 (compound alone, run of 02/26/2024): > 10 µM
SMILES: CN(C)c1ccc(Nc2c3ccc(NC(=O)CCN4CCCC4)cc3nc3cc(NC(=O)CCN4CCCC4)ccc23)cc1
viability, T/C (compound 0.0316 µM): 85.1% [middle of 7 runs] | viability, T/C (compound 10 µM): 67.7% [middle of 7 runs]

Second part, the compound before the results:

SMILES: COc1cccc2c1C(=O)c1c(O)c3c(c(O)c1C2=O)CC(O)(C(=O)CO)CC3OC1CC(N)C(O)C(C)O1 (configuration not stated) + Cc1cnc(CNC(=O)c2c(=O)c3ccc(N4CCCN(C)CC4)nc3n3c2sc2ccccc23)cn1
IC50 (curve of first compound, second compound 0.0316 µM): > 10 µM | IC50 (curve of first compound, second compound 0.1 µM): > 10 µM | IC50 (curve of first compound, second compound 0.316 µM): > 10 µM | IC50 (curve of first compound, second compound 1 µM): > 10 µM | IC50 (curve of first compound, second compound 3.16 µM): 0.577 µM | IC50 (curve of first compound, second compound 10 µM): < 0.0316 µM | viability, T/C (second compound 0.0316 µM, first compound 0.0316 µM): 105% | viability, T/C (second compound 0.0316 µM, first compound 0.1 µM): 85.3% | viability, T/C (second compound 0.0316 µM, first compound 0.316 µM): 63.1% | viability, T/C (second compound 0.0316 µM, first compound 1 µM): 81.8% | viability, T/C (second compound 0.0316 µM, first compound 3.16 µM): 71.5% | viability, T/C (second compound 0.0316 µM, first compound 10 µM): 59.9% | viability, T/C (second compound 0.1 µM, first compound 0.0316 µM): 108% | viability, T/C (second compound 0.1 µM, first compound 0.1 µM): 80.2% | viability, T/C (second compound 0.1 µM, first compound 0.316 µM): 91% | viability, T/C (second compound 0.1 µM, first compound 1 µM): 79.1% | viability, T/C (second compound 0.1 µM, first compound 3.16 µM): 67% | viability, T/C (second compound 0.1 µM, first compound 10 µM): 58.8% | viability, T/C (second compound 0.316 µM, first compound 0.0316 µM): 89.9% | viability, T/C (second compound 0.316 µM, first compound 0.1 µM): 51.9% | viability, T/C (second compound 0.316 µM, first compound 0.316 µM): 80.7% | viability, T/C (second compound 0.316 µM, first compound 1 µM): 44.4% | viability, T/C (second compound 0.316 µM, first compound 3.16 µM): 50.6% | viability, T/C (second compound 0.316 µM, first compound 10 µM): 74.3% | viability, T/C (second compound 1 µM, first compound 0.0316 µM): 82.2% | viability, T/C (second compound 1 µM, first compound 0.1 µM): 44.3% | viability, T/C (second compound 1 µM, first compound 0.316 µM): 88.7% | viability, T/C (second compound 1 µM, first compound 1 µM): 53.4% | viability, T/C (second compound 1 µM, first compound 3.16 µM): 47.7% | viability, T/C (second compound 1 µM, first compound 10 µM): 57.6% | viability, T/C (second compound 3.16 µM, first compound 0.0316 µM): 55.9% | viability, T/C (second compound 3.16 µM, first compound 0.1 µM): 61.1% | viability, T/C (second compound 3.16 µM, first compound 0.316 µM): 55% | viability, T/C (second compound 3.16 µM, first compound 1 µM): 33.6% | viability, T/C (second compound 3.16 µM, first compound 3.16 µM): 55.7% | viability, T/C (second compound 3.16 µM, first compound 10 µM): 47.1% | viability, T/C (second compound 10 µM, first compound 0.0316 µM): 36% | viability, T/C (second compound 10 µM, first compound 0.1 µM): 52.4% | viability, T/C (second compound 10 µM, first compound 0.316 µM): 43.9% | viability, T/C (second compound 10 µM, first compound 1 µM): 39.5% | viability, T/C (second compound 10 µM, first compound 3.16 µM): 41.4% | viability, T/C (second compound 10 µM, first compound 10 µM): 31.8%

SMILES: CC1COCCN1c1cc(C2(S(C)(=N)=O)CC2)nc(-c2ccnc3[nH]ccc23)n1 (configuration not stated)
viability, T/C (compound 0.0316 µM): 118% and 109% and 93.2% | viability, T/C (compound 0.1 µM): 80.8% and 90.4% and 89.4% | viability, T/C (compound 0.316 µM): 80.8% and 111% and 79% | viability, T/C (compound 1 µM): 115% and 98.5% and 105% | viability, T/C (compound 3.16 µM): 51.5% and 98.4% and 90.3% | viability, T/C (compound 10 µM): 61.3% and 105% and 86.2% | IC50 (curve of compound): > 10 µM

SMILES: CC[C@@]1(O)C(=O)OCc2c1cc1n(c2=O)Cc2cc3c(CN(C)C)c(O)ccc3nc2-1
viability, T/C (compound 0.000999 µM): 86.1% and 63.7% | viability, T/C (compound 0.00316 µM): 69.6% and 123% | viability, T/C (compound 0.00999 µM): 93.4% and 97% | viability, T/C (compound 0.0316 µM): 141% and 107% | viability, T/C (compound 0.0999 µM): 90.9% and 92.7% | viability, T/C (compound 0.316 µM): 75.1% and 69.3% | IC50 (curve of compound): > 0.316 µM

SMILES: O=C(NO)c1cnc(N2CCN(S(=O)(=O)c3ccc4ccccc4c3)CC2)nc1
viability, T/C (compound 0.0316 µM): 97.8% and 112% | viability, T/C (compound 0.1 µM): 76.5% and 58.8% | viability, T/C (compound 0.316 µM): 25.8% and 37.5% | viability, T/C (compound 1 µM): 9.47% and 14.6% | viability, T/C (compound 3.16 µM): 0.68% and 0.35% | viability, T/C (compound 10 µM): 0.51% and 0.58% | IC50 (curve of compound): 0.184 µM and 0.162 µM

SMILES: Nc1ccn(C2OC(CO)C(O)C2(F)F)c(=O)n1 (configuration not stated)
viability, T/C (compound 0.0316 µM): 78.1% | viability, T/C (compound 0.1 µM): 91.4% | viability, T/C (compound 0.316 µM): 92.2% | viability, T/C (compound 1 µM): 94.6% | viability, T/C (compound 3.16 µM): 96.3% | viability, T/C (compound 10 µM): 79% | IC50 (curve of compound): > 10 µM
